Data on 21 compounds can be found in patent publication US11254668B2, “Pyrazolo[1,5-A]pyrazin-4-yl and related derivatives” (Pfizer Inc., priority 2017, dated 2022).

Assay type in all cases: biochemical
What all share (conditions): JAK Caliper enzyme assay

One assay addresses TYK2 (Homo sapiens (Human), UniProt P29597). Kind of assay: JAK Caliper Enzyme Assay at 1 mM ATP, TYK2. In outline:
(§1)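 Inhibition is measured as reduced phosphorylation of a synthetic peptide by the recombinant human kinase domain at 1 mM ATP. Conditions give 20–30% conversion at room temperature before EDTA quench, and on-chip separation of labelled substrate and product yields percent conversion for dose–response plotting.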

A further assay has as its target JAK1 (Homo sapiens (Human), UniProt P23458). Kind of assay: JAK Caliper Enzyme Assay at 1 mM ATP, JAK1. The gist of the method:
(§2)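 IC50 (nM) derived from percent conversion of fluorescently labelled peptide, measured by Caliper LabChip mobility-shift separation after EDTA stop. Each JAK family kinase domain (human, recombinant) run at 1 mM ATP and room temperature, conditions set to 20-30% product; DMSO wells define uninhibited baseline.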

Another assay concerns the target JAK2 (Homo sapiens (Human), UniProt O60674). Kind of assay: JAK Caliper Enzyme Assay at 1 mM ATP, JAK2. In outline:
as §1

For a further assay, the target named is JAK3 (Homo sapiens (Human), UniProt P52333). Kind of assay: JAK Caliper Enzyme Assay at 1 mM ATP, JAK3. In outline:
as §2

TYK2, sequence (P29597 897-1176): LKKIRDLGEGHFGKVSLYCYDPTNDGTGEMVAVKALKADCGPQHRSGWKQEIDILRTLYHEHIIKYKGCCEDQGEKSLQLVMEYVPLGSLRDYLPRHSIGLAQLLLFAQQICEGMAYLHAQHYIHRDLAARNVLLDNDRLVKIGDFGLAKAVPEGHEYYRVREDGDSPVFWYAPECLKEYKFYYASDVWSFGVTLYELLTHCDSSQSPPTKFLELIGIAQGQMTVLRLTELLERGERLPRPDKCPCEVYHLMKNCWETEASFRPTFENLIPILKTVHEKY
JAK1, sequence (P23458 875-1153): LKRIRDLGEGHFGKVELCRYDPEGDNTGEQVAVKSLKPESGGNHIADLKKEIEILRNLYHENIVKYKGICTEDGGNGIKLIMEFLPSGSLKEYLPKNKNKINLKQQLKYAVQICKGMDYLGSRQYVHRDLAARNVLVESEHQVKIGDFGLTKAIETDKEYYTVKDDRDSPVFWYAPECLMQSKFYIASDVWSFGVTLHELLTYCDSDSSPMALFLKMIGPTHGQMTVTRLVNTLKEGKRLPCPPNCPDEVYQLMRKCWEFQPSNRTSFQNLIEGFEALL
JAK3, sequence (P52333 822-1111): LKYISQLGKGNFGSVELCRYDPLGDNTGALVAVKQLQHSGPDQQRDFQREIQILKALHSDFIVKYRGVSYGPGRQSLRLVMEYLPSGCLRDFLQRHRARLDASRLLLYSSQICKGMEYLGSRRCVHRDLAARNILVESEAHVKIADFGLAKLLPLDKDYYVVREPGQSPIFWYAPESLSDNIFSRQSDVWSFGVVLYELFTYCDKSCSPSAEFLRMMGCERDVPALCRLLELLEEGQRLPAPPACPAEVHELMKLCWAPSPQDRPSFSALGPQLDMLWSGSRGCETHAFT
JAK2, sequence (O60674 849-1124): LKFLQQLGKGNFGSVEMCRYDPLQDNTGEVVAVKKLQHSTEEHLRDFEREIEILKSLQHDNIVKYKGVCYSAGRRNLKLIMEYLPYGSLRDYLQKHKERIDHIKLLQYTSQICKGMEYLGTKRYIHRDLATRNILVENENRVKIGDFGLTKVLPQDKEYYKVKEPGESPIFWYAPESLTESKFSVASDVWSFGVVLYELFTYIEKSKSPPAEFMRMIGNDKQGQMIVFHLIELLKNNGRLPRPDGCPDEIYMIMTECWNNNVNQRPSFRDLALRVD

As for `CS(=O)(=O)N1CC(CC#N)(n2ncc(-c3cc(-c4cnc(N)nc4)cc4ncccc34)n2)C1` [Example 393, [3-{4-[7-(2-aminopyrimidin-5-yl)quinolin-5-yl]-2H-1,2,3-triazol-2-yl}-1-(methylsulfonyl)azetidin-3-yl]acetonitrile], the concentration for half-maximal inhibition (IC50) – broadly, the concentration at which inhibition is half-maximal – at TYK2 was 3470 nM; on JAK1 it was > 10000 nM; at JAK2, > 10000 nM; at JAK3, > 10000 nM.

For `N#CC[C@]1(n2ncc(-c3cc(-c4cc(N)ncn4)cc4ncccc34)n2)C[C@@H](C#N)C1` [Example 395, cis-3-{4-[7-(6-aminopyrimidin-4-yl)quinolin-5-yl]-2H-1,2,3-triazol-2-yl}-3-(cyanomethyl)cyclobutanecarbonitrile], the concentration for half-maximal inhibition (IC50) was 78 nM at TYK2, 6350 nM at JAK1, 774 nM at JAK2 and > 10000 nM at JAK3.

Regarding `N#CC[C@]1(n2ncc(-c3cc(-c4cncc(N)n4)cc4ncccc34)n2)C[C@@H](C#N)C1` [Example 396, cis-3-{4-[7-(6-aminopyrazin-2-yl)quinolin-5-yl]-2H-1,2,3-triazol-2-yl}-3-(cyanomethyl)cyclobutanecarbonitrile], the 50% inhibitory concentration (IC50) is 506 nM on TYK2, 3330 nM at JAK1, 1480 nM at JAK2 and > 10000 nM on JAK3.

Take `N#CC[C@]1(n2ncc(-c3cc(-c4cnc(N)cn4)cc4ncccc34)n2)C[C@@H](C#N)C1` [Example 398, cis-3-{4-[7-(5-aminopyrazin-2-yl)quinolin-5-yl]-2H-1,2,3-triazol-2-yl}-3-(cyanomethyl)cyclobutanecarbonitrile]: the IC50 at TYK2 was 204 nM; at JAK1 it was 1900 nM; at JAK2 it was 1040 nM; at JAK3, > 10000 nM.

For `N#CC[C@]1(n2ncc(-c3cc(-c4cnc(N)cn4)cc4ncccc34)n2)C[C@H](C#N)C1` [Example 399, trans-3-{4-[7-(5-aminopyrazin-2-yl)quinolin-5-yl]-2H-1,2,3-triazol-2-yl}-3-(cyanomethyl)cyclobutanecarbonitrile], the IC50 at TYK2 was 2400 nM; at JAK1, > 10000 nM; at JAK2, > 10000 nM; on JAK3 it was > 10000 nM.

Regarding `N#CC[C@]1(n2ncc(-c3cc(-c4ccc(N)nn4)cc4ncccc34)n2)C[C@@H](C#N)C1` [Example 400, cis-3-{4-[7-(6-aminopyridazin-3-yl)quinolin-5-yl]-2H-1,2,3-triazol-2-yl}-3-(cyanomethyl)cyclobutanecarbonitrile], the 50% inhibitory concentration (IC50) at TYK2 was 16 nM; on JAK1 it was 748 nM; on JAK2, 67 nM; at JAK3, 9130 nM.

Turning to `N#CC[C@]1(n2ncc(-c3cc(-c4ccc(N)nn4)cc4ncccc34)n2)C[C@H](C#N)C1` [Example 401, trans-3-{4-[7-(6-aminopyridazin-3-yl)quinolin-5-yl]-2H-1,2,3-triazol-2-yl}-3-(cyanomethyl)cyclobutanecarbonitrile], the IC50 is 55 nM on TYK2, 3700 nM at JAK1, 369 nM on JAK2 and > 10000 nM on JAK3.

As to `Cc1cncc(-c2cc(-c3cnn([C@]4(CC#N)C[C@H](C#N)C4)n3)c3cccnc3c2)n1` [Example 402, cis-3-(cyanomethyl)-3-{4-[7-(6-methylpyrazin-2-yl)quinolin-5-yl]-2H-1,2,3-triazol-2-yl}cyclobutanecarbonitrile], the half-inhibitory concentration (IC50) on TYK2 was 2530 nM; on JAK1, > 10000 nM; on JAK2, 6290 nM; on JAK3, > 10000 nM.

In the case of `Cc1cncc(-c2cc(-c3cnn([C@]4(CC#N)C[C@@H](C#N)C4)n3)c3cccnc3c2)n1` [Example 403, trans-3-(cyanomethyl)-3-{4-[7-(6-methylpyrazin-2-yl)quinolin-5-yl]-2H-1,2,3-triazol-2-yl}cyclobutanecarbonitrile], the IC50 on TYK2 is 7190 nM; at JAK1 it was > 10000 nM; at JAK2, > 10000 nM; on JAK3 it was > 10000 nM.

Regarding `Cc1ncc(N)nc1-c1cc(-c2cnn([C@]3(CC#N)C[C@H](C#N)C3)n2)c2cccnc2c1` [Example 404, cis-3-{4-[7-(6-amino-3-methylpyrazin-2-yl)quinolin-5-yl]-2H-1,2,3-triazol-2-yl}-3-(cyanomethyl)cyclobutanecarbonitrile], the concentration for half-maximal inhibition (IC50) on TYK2 was 7400 nM; on JAK1 it was > 10000 nM; on JAK2, > 10000 nM; on JAK3, > 10000 nM.

Regarding `COc1ncc(-c2cc(-c3cnn(C4(CC#N)CN(S(C)(=O)=O)C4)n3)c3cccnc3c2)cn1` [Example 405, [3-{4-[7-(2-methoxypyrimidin-5-yl)quinolin-5-yl]-2H-1,2,3-triazol-2-yl}-1-(methylsulfonyl)azetidin-3-yl]acetonitrile], the half-maximal inhibitory concentration (IC50) at TYK2 is 3060 nM; at JAK1, > 10000 nM; on JAK2 it was > 10000 nM; on JAK3, > 10000 nM.

On to `N#CC[C@]1(n2ncc(-c3cc(-c4ncc(OCCO)cn4)cc4ncccc34)n2)C[C@@H](C#N)C1` [Example 406, cis-3-(cyanomethyl)-3-(4-{7-[5-(2-hydroxyethoxy)pyrimidin-2-yl]quinolin-5-yl}-2H-1,2,3-triazol-2-yl)cyclobutanecarbonitrile], for which the IC50 on TYK2 is 2150 nM; on JAK1, > 10000 nM; at JAK2, > 10000 nM; on JAK3 it was > 10000 nM.

As to `COc1nc(-c2cc(-c3cnn([C@]4(CC#N)C[C@H](C#N)C4)n3)c3cccnc3c2)cnc1N` [Example 407, cis-3-{4-[7-(5-amino-6-methoxypyrazin-2-yl)quinolin-5-yl]-2H-1,2,3-triazol-2-yl}-3-(cyanomethyl)cyclobutanecarbonitrile], the half-maximal inhibitory concentration (IC50) on TYK2 is 257 nM; at JAK1 it was 1200 nM; on JAK2, 1010 nM; at JAK3, > 10000 nM.

With `COc1nc(-c2cc(-c3cnn([C@]4(CC#N)C[C@@H](C#N)C4)n3)c3cccnc3c2)cnc1N` [Example 408, trans-3-{4-[7-(5-amino-6-methontpyrazin-2-yl)quinolin-5-yl]-2H-1,2,3-triazol-2-yl}-3-(cyanomethyl)cyclobutanecarbonitrile], the concentration for half-maximal inhibition (IC50) on TYK2 is 2090 nM; on JAK1, > 10000 nM; at JAK2 it was > 10000 nM; at JAK3 it was > 10000 nM.

For `CS(=O)(=O)N1CC(CC#N)(n2ncc(-c3cc(-c4ccc(=O)[nH]c4)cc4ncccc34)n2)C1` [Example 409, [1-(methylsulfonyl)-3-{4-[7-(6-oxo-1,6-dihydropyridin-3-yl)quinolin-5-yl]-2H-1,2,3-triazol-2-yl}azetidin-3-yl]acetonitrile], the half-maximal inhibitory concentration (IC50) is 53 nM on TYK2, 2610 nM on JAK1, 982 nM on JAK2 and > 10000 nM at JAK3.

With `N#CC[C@]1(n2ncc(-c3cc(-c4cc[nH]c(=O)c4)cc4ncccc34)n2)C[C@@H](C#N)C1` [Example 410, cis-3-(cyanomethyl)-3-{4-[7-(2-oxo-1,2-dihydropyridin-4-yl)quinolin-5-yl]-2H-1,2,3-triazol-2-yl}cyclobutanecarbonitrile], the IC50 was 39 nM on TYK2, 2340 nM at JAK1, 207 nM on JAK2 and > 10000 nM at JAK3.

Take `N#CC[C@]1(n2ncc(-c3cc(-c4cc[nH]c(=O)c4)cc4ncccc34)n2)C[C@H](C#N)C1` [Example 411, trans-3-(cyanomethyl)-3-{4-[7-(2-oxo-1,2-dihydropyridin-4-yl)quinolin-5-yl]-2H-1,2,3-triazol-2-yl}cyclobutanecarbonitrile]: the concentration for half-maximal inhibition (IC50) is 257 nM at TYK2, > 10000 nM at JAK1, 1690 nM on JAK2 and > 10000 nM at JAK3.

For the compound `Cn1cc(-c2cc(-c3cnn(C4(CC#N)CN(S(C)(=O)=O)C4)n3)c3cccnc3c2)ccc1=O` [Example 412, [3-{4-[7-(1-methyl-6-oxo-1,6-dihydropyridin-3-yl)quinolin-5-yl]-2H-1,2,3-triazol-2-yl}-1-(methylsulfonyl)azetidin-3-yl]acetonitrile], the IC50 was 167 nM on TYK2, 3080 nM on JAK1, 1290 nM on JAK2 and > 10000 nM at JAK3.

Take `CCn1cc(-c2cc(-c3cnn(C4(CC#N)CN(S(C)(=O)=O)C4)n3)c3cccnc3c2)ccc1=O` [Example 413, [3-{4-[7-(1-ethyl-6-oxo-1,6-dihydropyridin-3-yl)quinolin-5-yl]-2H-1,2,3-triazol-2-yl}-1-(methylsulfonyl)azetidin-3-yl]acetonitrile]: the IC50 was 90 nM at TYK2, 4020 nM at JAK1, 682 nM at JAK2 and > 10000 nM at JAK3.

Regarding `CS(=O)(=O)N1CC(CC#N)(n2ncc(-c3cc(-c4c[nH]c(=O)[nH]c4=O)cc4ncccc34)n2)C1` [Example 414, [3-{4-[7-(2,4-dioxo-1,2,3,4-tetrahydropyrimidin-5-yl)quinolin-5-yl]-2H-1,2,3-triazol-2-yl}-1-(methylsulfonyl)azetidin-3-yl]acetonitrile], the half-maximal inhibitory concentration (IC50) at TYK2 is 276 nM; on JAK1 it was > 10000 nM; on JAK2, 6170 nM; at JAK3, > 10000 nM.

With `N#CC[C@]1(n2ncc(-c3cc(-c4cnc5[nH]ccc5n4)cc4ncccc34)n2)C[C@@H](C#N)C1` [Example 416, cis-3-(cyanomethyl)-3-{4-[7-(5H-pyrrolo[2,3-b]pyrazin-2-yl)quinolin-5-yl]-2H-1,2,3-triazol-2-yl}cyclobutanecarbonitrile], the half-maximal inhibitory concentration (IC50) on TYK2 is 696 nM; on JAK1, 3200 nM; on JAK2, 2300 nM; on JAK3, > 10000 nM.
